According to US20210085640A1, “ACYLATED CATECHIN POLYPHENOLS AND METHODS OF THEIR USE FOR THE TREATMENT OF CANCER” (Flagship Pioneering Innovations V, Inc., priority 2018, published 2021):

Tests used:
[1] = Stability in Simulated Gastric Fluid (SGF); assay type: in vitro ADME; conditions: SGF pH 1.6 with pepsin, 1 μM, 37° C.
Procedure: Stability of acylated active agents in Simulated Gastric Fluid (SGF). This assay was used to assess the stability of an acylated active agent in a stomach.
Medium was prepared by dissolving 2 g of sodium chloride in 0.6 L in ultrapure water (MilliQ®, Millipore Sigma, Darmstadt, Germany). The pH was adjusted to 1.6 with 1N hydrochloric acid, and the volume was then adjusted to 1 L with purified water.
60 mg FaSSIF powder (Biorelevant™, London, UK) were dissolved in 500 mL buffer (above). Pepsin was added (0.1 mg/mL) (Millipore Sigma, Darmstadt, Germany), and the solution was stirred. The resulting SGF media were used fresh for each experiment.
(§1) Test compounds were dissolved in DMSO stock to 1 mM. An aliquot of the DMSO stock solution was removed and diluted in the SGF Media in 15 mL falcon tubes to generate a total compound concentration of 1 μM. A 1 mL aliquot was immediately removed and diluted once with 1 volume of acetonitrile for T0 timepoint. The mixture was sealed and mixed at 37° C. in an incubator. Aliquots (1 mL) were removed at regular intervals and immediately quenched by the addition of 1 volume of acetonitrile. The resulting samples were analyzed by LC/MS to determine degradation rates

[2] = Stability in Simulated Intestinal Fluid (SIF); assay type: in vitro ADME
Procedure: SIF Stability of acylated active agents in Simulated Intestinal Fluid (SIF). This assay was used to assess the stability of an acylated active agent in a small intestine.
Phosphate buffer was prepared by dissolving 0.42 g of sodium hydroxide pellets and 3.95 g of monobasic sodium phosphate monohydrate and 6.19 g of sodium chloride in ultrapure water (MilliQ®, Millipore Sigma, Darmstadt, Germany). The pH was adjusted to 6.7 using aq. HCl and aq. NaOH, as necessary, and the solution was diluted with ultrapure water to produce 1 L of the pH 6.7 buffer.
112 mg FaSSIF powder (Biorelevant™, London, UK) was dissolved in 50 mL of the pH 6.7 buffer. 2 to 3 mL of the resulting solution were then added to 500 mg pancreatin (Millipore Sigma, Darmstadt, Germany). The resulting mixture was agitated by finger tapping the vessel containing the mixture until milky suspension formed. At this time, the remainder of the 50 mL FaSSiF/pH 6.7 buffer solution was added. The resulting suspension was flipped upside down 10 times to produce SIF, which was used fresh.
as §1, with “SIF media” for “SGF Media”, “produce” for “generate”, “mixture with a tested” for “total”, “agitated” for “mixed”, “rates.” for “rates”

T24 bladder cancer cells = test: Cancer cell survival (CellTiter-Glo), T24; assay type: cell-based; conditions: 72 h
Outline: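 T24 cells seeded at 4×10^3 cells/well overnight, then exposed 72 h at 37 C, 5% CO2 to nine concentrations in triplicate. Survival measured by CellTiter-Glo luminescence relative to untreated and medium controls; IC50 derived.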

[3] = system: Daudi lymphoma cancer cells; test: Cancer cell survival (CellTiter-Glo), Daudi; assay type: cell-based; conditions: 72 h
Outline: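 Daudi cells (4×10^3/well) were exposed for 72 h at 37 °C to nine concentrations of compound, added as 10× solutions spanning 1 μM–10 mM (fatty acids) or 100 nM–1 mM (others). CellTiter-Glo luminescence gave % survival versus untreated, medium-blank corrected; IC50 derived.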

MCF7 breast cancer cells = test: Cancer cell survival (CellTiter-Glo), MCF7; assay type: cell-based; conditions: 72 h
Outline: (§2)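 Cells seeded at 4×10^3 cells/well, incubated overnight, then treated in triplicate at nine concentrations for 72 h at 37 C, 5% CO2. Viability by CellTiter-Glo luminescence, survival % normalized to untreated and medium controls; IC50 derived.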

[4] = system: HCT 116 colorectal cancer cells; test: Cancer cell survival (CellTiter-Glo), HCT 116; assay type: cell-based; conditions: HCT 116 cells, 72 h
Outline: as §2

A549 lung cancer cells = test: Cancer cell survival (CellTiter-Glo), A549; assay type: cell-based; conditions: 72 h
Outline: as §2

[5] = system: PC-3 prostate cancer cells; test: Cancer cell survival (CellTiter-Glo), PC-3; assay type: cell-based; conditions: PC-3 cells, 72 h
Outline: as §2

A-431 skin cancer cells = test: Cancer cell survival (CellTiter-Glo), A-431; assay type: cell-based; design: Cell survival at given concentration: unit not given here; conditions: A-431 cells, 72 h
Outline: as §2

AGS stomach cancer cells = test: Cancer cell survival (CellTiter-Glo), AGS; assay type: cell-based; design: Cell survival at given concentration: unit not given here
Outline: as §2

## CCCC(=O)OCC[C@@H](C)OC(=O)Oc1ccc(/C=C/c2cc(OC(=O)O[C@H](C)CCOC(=O)CCC)cc(OC(=O)O[C@H](C)CCOC(=O)CCC)c2)cc1 [Compound 25, [(3R)-3-[4-[(E)-2-[3,5-bis[[(1R)-3-butanoyloxy-1-methyl-propoxy]carbonyloxy]phenyl]vinyl]phenoxy]carbonyloxybutyl] butanoate]
[1]
  Assay 1 (SGF) (% Remaining @ 1 hours): C (>75% of the tested compound remaining)
[2]; SIF pH 6.7 with pancreatin, 1 μM, 37° C., 4 hours
  Assay 2 (SIF) (% @ Remaining 4 hours): A (<25% of the tested compound remaining)
[2]; conclusion drawn from Table 1 (SGF and SIF stability)
  selective delivery to the upper intestine: can be selectively delivered to the upper intestine

## CC(=O)Oc1cc(OC(C)=O)c2c(=O)c(OC(C)=O)c(-c3cc(OC(C)=O)c(OC(C)=O)c(OC(C)=O)c3)oc2c1 [Compound 11, [3,5-diacetoxy-4-oxo-2-(3,4,5-triacetoxyphenyl)chromen-7-yl] acetate]
[1]
  Assay 1 (SGF) (% Remaining @ 1 hours): C (>75% of the tested compound remaining)

## CCCC(=O)O[C@H](C)CCOC(=O)C[C@@H](C)OC(=O)CCC [Compound 23, (R)-3-(butyryloxy)butyl (R)-3-(butyryloxy)butanoate]
[1]
  Assay 1 (SGF) (% Remaining @ 1 hours): C (>75% of the tested compound remaining)

## CCC(=O)Oc1cc(OC(=O)CC)c2c(c1)O[C@H](c1cc(OC(=O)CC)c(OC(=O)CC)c(OC(=O)CC)c1)[C@H](OC(=O)c1cc(OC(=O)CC)c(OC(=O)CC)c(OC(=O)CC)c1)C2 [Compound 15, [(2R,3R)-5,7-di(propanoyloxy)-2-[3,4,5-tri(propanoyloxy)phenyl]chroman-3-yl] 3,4,5-tri(propanoyloxy)benzoate]
[1]
  Assay 1 (SGF) (% Remaining @ 1 hours): C (>75% of the tested compound remaining)

## CC(=O)O [acetate]
T24 bladder cancer cells; 1 μM, Table 3.2
  Cell survival at given concentration: 0.97
T24 bladder cancer cells; 3 μM, Table 3.2
  Cell survival at given concentration: 0.97
T24 bladder cancer cells; 10 μM, Table 3.2
  Cell survival at given concentration: 1.04
T24 bladder cancer cells; 32 μM, Table 3.2
  Cell survival at given concentration: 0.97
T24 bladder cancer cells; 100 μM, Table 3.2
  Cell survival at given concentration: 1.00
T24 bladder cancer cells; 317 μM
  Cell survival at given concentration: 1.01
T24 bladder cancer cells; 1 mM
  Cell survival at given concentration: 0.99
T24 bladder cancer cells; 3 mM
  Cell survival at given concentration: 0.97
T24 bladder cancer cells; 10 mM
  Cell survival at given concentration: 0.91
[3]; 1 μM, Table 4.2
  Cell survival at given concentration: 1.00
[3]; 3 μM, Table 4.2
  Cell survival at given concentration: 0.99
[3]; 10 μM, Table 4.2
  Cell survival at given concentration: 0.99
[3]; 32 μM, Table 4.2
  Cell survival at given concentration: 1.01
[3]; 100 μM, Table 4.2
  Cell survival at given concentration: 1.02
[3]; 317 μM
  Cell survival at given concentration: 1.02
[3]; 1 mM
  Cell survival at given concentration: 1.01
[3]; 3 mM
  Cell survival at given concentration: 0.97
[3]; 10 mM
  Cell survival at given concentration: 0.75
MCF7 breast cancer cells; 1 μM, Table 5.2
  Cell survival at given concentration: 1.01
MCF7 breast cancer cells; 3 μM, Table 5.2
  Cell survival at given concentration: 1.02
MCF7 breast cancer cells; 10 μM, Table 5.2
  Cell survival at given concentration: 0.98
MCF7 breast cancer cells; 32 μM, Table 5.2
  Cell survival at given concentration: 1.03
MCF7 breast cancer cells; 100 μM, Table 5.2
  Cell survival at given concentration: 1.02
MCF7 breast cancer cells; 317 μM
  Cell survival at given concentration: 1.04
MCF7 breast cancer cells; 1 mM
  Cell survival at given concentration: 0.99
MCF7 breast cancer cells; 3 mM
  Cell survival at given concentration: 0.99
MCF7 breast cancer cells; 10 mM
  Cell survival at given concentration: 0.91
[4]; 1 μM, Table 6.2
  Cell survival at given concentration: 1.01
[4]; 3 μM, Table 6.2
  Cell survival at given concentration: 1.03
[4]; 10 μM, Table 6.2
  Cell survival at given concentration: 1.03
[4]; 32 μM, Table 6.2
  Cell survival at given concentration: 1.03
[4]; 100 μM, Table 6.2
  Cell survival at given concentration: 1.06
[4]; 317 μM
  Cell survival at given concentration: 1.02
[4]; 1 mM
  Cell survival at given concentration: 1.02
[4]; 3 mM
  Cell survival at given concentration: 1.00
[4]; 10 mM
  Cell survival at given concentration: 0.84
[4]; Table 6.2
  IC50: > 10 mM
A549 lung cancer cells; 1 μM, Table 7.2
  Cell survival at given concentration: 1.00
A549 lung cancer cells; 3 μM, Table 7.2
  Cell survival at given concentration: 1.01
A549 lung cancer cells; 10 μM, Table 7.2
  Cell survival at given concentration: 1.00
A549 lung cancer cells; 32 μM, Table 7.2
  Cell survival at given concentration: 1.06
A549 lung cancer cells; 100 μM, Table 7.2
  Cell survival at given concentration: 1.09
A549 lung cancer cells; 317 μM
  Cell survival at given concentration: 1.02
A549 lung cancer cells; 1 mM
  Cell survival at given concentration: 1.03
A549 lung cancer cells; 3 mM
  Cell survival at given concentration: 1.03
A549 lung cancer cells; 10 mM
  Cell survival at given concentration: 1.00
[5]; 1 μM, Table 8.2
  Cell survival at given concentration: 1.05
[5]; 3 μM, Table 8.2
  Cell survival at given concentration: 1.00
[5]; 10 μM, Table 8.2
  Cell survival at given concentration: 1.02
[5]; 32 μM, Table 8.2
  Cell survival at given concentration: 1.03
[5]; 100 μM, Table 8.2
  Cell survival at given concentration: 1.07
[5]; 317 μM
  Cell survival at given concentration: 1.05
[5]; 1 mM
  Cell survival at given concentration: 1.01
[5]; 3 mM
  Cell survival at given concentration: 1.00
[5]; 10 mM
  Cell survival at given concentration: 0.88
[5]; Table 8.2
  IC50: > 10 mM
A-431 skin cancer cells; 1 μM, Table 9.2
  Cell survival at given concentration: 1.02
A-431 skin cancer cells; 3 μM, Table 9.2
  Cell survival at given concentration: 1.03
A-431 skin cancer cells; 10 μM, Table 9.2
  Cell survival at given concentration: 1.06
A-431 skin cancer cells; 32 μM, Table 9.2
  Cell survival at given concentration: 1.03
A-431 skin cancer cells; 100 μM, Table 9.2
  Cell survival at given concentration: 1.05
A-431 skin cancer cells; 317 μM
  Cell survival at given concentration: 1.05
A-431 skin cancer cells; 1 mM
  Cell survival at given concentration: 1.05
A-431 skin cancer cells; 3 mM
  Cell survival at given concentration: 1.02
A-431 skin cancer cells; 10 mM
  Cell survival at given concentration: 0.99
AGS stomach cancer cells; 1 μM, Table 10.2
  Cell survival at given concentration: 0.99
AGS stomach cancer cells; 3 μM, Table 10.2
  Cell survival at given concentration: 1.00
AGS stomach cancer cells; 10 μM, Table 10.2
  Cell survival at given concentration: 1.02
AGS stomach cancer cells; 32 μM, Table 10.2
  Cell survival at given concentration: 1.03
AGS stomach cancer cells; 100 μM, Table 10.2
  Cell survival at given concentration: 1.03
AGS stomach cancer cells; 317 μM
  Cell survival at given concentration: 1.03
AGS stomach cancer cells; 1 mM
  Cell survival at given concentration: 1.02
AGS stomach cancer cells; 3 mM
  Cell survival at given concentration: 1.03
AGS stomach cancer cells; 10 mM
  Cell survival at given concentration: 1.02

## CC(=O)Oc1ccc(-c2oc3cc(OC(C)=O)cc(OC(C)=O)c3c(=O)c2OC(C)=O)cc1 [Compound 8, [4-(3,5,7-triacetoxy-4-oxo-chromen-2-yl)phenyl] acetate]
[1]
  Assay 1 (SGF) (% Remaining @ 1 hours): C (>75% of the tested compound remaining)
